Assay results as given in patent US20240342320A1, “POLYPEPTIDE TARGETING INTEGRIN ALPHA 6 AND USE THEREOF” (GUANGZHOU GENBIONOVA MEDICAL TECHNOLOGY CO., LTD., priority 2021, published 2024).
Read-outs that look alike come from different tables or passages of the source. Positions of bridges follow the written chain, without caps; N, C: chain ends. Non-standard residues stand in square brackets, D forms with d. Residues, ends and D or L forms follow the SMILES beside them. *: point of attachment. NOTA = O=C(O)CN1CCN(CC(=O)O)CCN(CC(=O)*)CC1; PEG4 = NCCOCCOCCOCCOCCC(=O)O

Tests used:
integrin α6β4 [1] = biological target: T1, integrin α6β4 (Homo sapiens, UniProt P16144+P23229); test: Microscale thermophoresis (MST) affinity to integrin α6β4; format: binding; details: MST
T1 sequence (P23229 24-1050 limits assumed): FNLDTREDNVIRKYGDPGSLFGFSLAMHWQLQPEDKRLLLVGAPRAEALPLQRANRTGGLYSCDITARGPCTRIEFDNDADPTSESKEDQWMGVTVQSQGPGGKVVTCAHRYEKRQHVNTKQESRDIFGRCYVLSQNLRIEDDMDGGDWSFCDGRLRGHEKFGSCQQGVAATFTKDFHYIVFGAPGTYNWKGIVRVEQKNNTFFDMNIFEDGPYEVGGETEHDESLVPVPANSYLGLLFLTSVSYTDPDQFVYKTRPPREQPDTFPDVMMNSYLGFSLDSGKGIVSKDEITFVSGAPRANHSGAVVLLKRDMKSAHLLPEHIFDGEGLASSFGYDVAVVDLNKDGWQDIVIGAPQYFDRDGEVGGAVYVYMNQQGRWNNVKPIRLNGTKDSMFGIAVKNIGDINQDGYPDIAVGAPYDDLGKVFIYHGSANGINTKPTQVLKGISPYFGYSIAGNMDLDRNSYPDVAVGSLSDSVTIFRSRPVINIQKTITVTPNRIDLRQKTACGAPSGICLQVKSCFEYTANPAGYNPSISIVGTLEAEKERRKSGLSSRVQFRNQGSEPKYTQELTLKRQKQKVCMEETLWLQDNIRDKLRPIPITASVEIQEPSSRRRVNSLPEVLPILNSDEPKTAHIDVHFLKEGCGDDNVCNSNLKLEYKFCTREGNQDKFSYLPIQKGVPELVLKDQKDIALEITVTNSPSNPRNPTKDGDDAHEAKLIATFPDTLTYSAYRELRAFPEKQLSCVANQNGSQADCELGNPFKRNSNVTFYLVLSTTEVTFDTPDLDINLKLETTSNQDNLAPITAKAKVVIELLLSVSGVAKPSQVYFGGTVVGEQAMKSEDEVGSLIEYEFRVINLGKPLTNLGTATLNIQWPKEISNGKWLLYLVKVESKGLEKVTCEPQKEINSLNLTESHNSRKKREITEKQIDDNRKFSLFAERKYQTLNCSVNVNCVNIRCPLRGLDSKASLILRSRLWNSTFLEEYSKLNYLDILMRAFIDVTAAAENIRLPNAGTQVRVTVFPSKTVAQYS
T1 sequence (P16144 28-710 partner limits assumed): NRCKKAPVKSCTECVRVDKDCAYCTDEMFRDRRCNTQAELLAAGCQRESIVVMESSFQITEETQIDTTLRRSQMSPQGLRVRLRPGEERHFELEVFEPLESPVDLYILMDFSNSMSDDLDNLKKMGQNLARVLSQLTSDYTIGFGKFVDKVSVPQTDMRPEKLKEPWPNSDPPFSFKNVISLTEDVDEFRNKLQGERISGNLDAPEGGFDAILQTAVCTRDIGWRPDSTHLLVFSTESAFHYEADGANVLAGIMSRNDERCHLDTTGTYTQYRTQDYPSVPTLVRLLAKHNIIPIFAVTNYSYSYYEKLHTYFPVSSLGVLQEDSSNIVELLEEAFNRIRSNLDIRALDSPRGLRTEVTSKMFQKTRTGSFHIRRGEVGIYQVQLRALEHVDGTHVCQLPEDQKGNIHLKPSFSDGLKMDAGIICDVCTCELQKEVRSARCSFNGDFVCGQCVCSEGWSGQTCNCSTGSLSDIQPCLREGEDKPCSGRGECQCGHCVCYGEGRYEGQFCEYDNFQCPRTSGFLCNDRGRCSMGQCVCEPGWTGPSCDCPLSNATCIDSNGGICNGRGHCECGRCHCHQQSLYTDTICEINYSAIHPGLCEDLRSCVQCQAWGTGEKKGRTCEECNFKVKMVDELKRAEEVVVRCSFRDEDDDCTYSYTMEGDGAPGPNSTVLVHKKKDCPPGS
Experimental: (§1) The affinity between these 18 polypeptides and integrin α6β4 was detected by microscale thermophoresis (MST) method as follows: • 1) Integrin α6β4 protein was dissolved to 800 nM, and polypeptide was dissolved to 100 μM. • 2) A RED-tris-NTA second-generation dye was diluted to 100 nM by using the MO series RED-tris-NTA protein labeling kit. • 3) 100 μl α6β4 protein was mixed with 50 μl dye and incubated at room temperature for 30 min, so that the α6β4 protein binds to the dye. • 4) 10 μl polypeptide was transferred into a PCR tube, and was diluted with PBST (containing 0.05% Tween 20) at a ratio of 1:1 to 16 gradients of concentrations. • 5) 3 μl protein/dye mixture was transferred into a PCR tube, 3 μl of 16 different concentrations of polypeptides was respectively added and mixed well. • 6) The mixture was absorbed by capillary and loaded on machine (instrument model Monolith NT.115) to assay, parameters were set as 80% LED/excitation power and medium MST power. • 7) MO. Affinity Analysis software was used to calculate the equilibrium dissociation constant KD between α6β4 protein and polypeptide by KD fitting mode.

integrin α6β4 [2] = biological target: T2, integrin α6β4 (Homo sapiens, UniProt P23229); test: as above; format: binding; details: for Affinity relative to RWY: relative to CRWYDENAC (RWY) = 1.00
T2 sequence (P23229 24-1050 limits assumed): T1 sequence (P23229 24-1050 limits assumed)
T2 sequence (P16144 28-710 partner limits assumed): T1 sequence (P16144 28-710 partner limits assumed)
Experimental: as §1

[3] = integrin α6β4, determination 1, read-out: KD (um) 1
[4] = integrin α6β4, determination 2, read-out: KD (um) 2
[5] = integrin α6β4, determination 3, read-out: KD (um) 3
[6] = integrin α6β4, mean of 3, read-out: KD Mean value (μm)

SMILES	Kd (integrin α6β4 [1]; [3]) [µM]	Kd (integrin α6β4 [1]; [4]) [µM]	Kd (integrin α6β4 [1]; [5]) [µM]	Kd (integrin α6β4 [1]; [6]) [µM]	Affinity relative to RWY (integrin α6β4 [2])	Kd (integrin α6β4 [1]; integrin α6β4, read-out: KD) [µM]	Kd (integrin α6β4 [2]; MST, integrin α6β4) [µM]
C[C@@H]1NC(=O)[C@H](C)NC(=O)[C@H](CCC(=O)O)NC(=O)[C@H](CC(=O)O)NC(=O)[C@H](Cc2ccc(O)cc2)NC(=O)[C@H](Cc2c[nH]c3ccccc23)NC(=O)[C@H](CCCNC(=N)N)NC(=O)[C@@H](N)CSSC[C@@H](C(=O)O)NC1=O [P7, CRWYDEAAC] (H-CRWYDEAAC-OH; disulfide 1-9; N-terminus and C-terminus assumed)	0.25	0.25	1.37	0.62	11.19	–	–
N=C(N)NCCC[C@H](N)C(=O)N[C@@H](Cc1c[nH]c2ccccc12)C(=O)N[C@@H](Cc1ccc(O)cc1)C(=O)N[C@@H](CC(=O)O)C(=O)N[C@@H](CCC(=O)O)C(=O)N[C@@H](CC(N)=O)C(=O)O [P9, RWYDEN] (H-RWYDEN-OH; N-terminus and C-terminus assumed)	9.69	8.73	13.1	10.5	0.66	–	–
C[C@@H]1NC(=O)[C@H](CC(N)=O)NC(=O)[C@H](C)NC(=O)[C@H](CC(=O)O)NC(=O)[C@H](Cc2ccc(O)cc2)NC(=O)[C@H](Cc2c[nH]c3ccccc23)NC(=O)[C@H](CCCNC(=N)N)NC(=O)[C@@H](N)CSSC[C@@H](C(=O)O)NC1=O [P6, CRWYDANAC] (H-CRWYDANAC-OH; disulfide 1-9; N-terminus and C-terminus assumed)	1.21	7.99	3.83	4.34	1.61	–	–
C[C@@H]1NC(=O)[C@H](CC(N)=O)NC(=O)[C@H](CCC(=O)O)NC(=O)[C@H](CC(=O)O)NC(=O)[C@H](Cc2ccc(O)cc2)NC(=O)[C@H](Cc2c[nH]c3ccccc23)NC(=O)[C@H](CCCNC(=N)N)NC(=O)[C@@H](N)CSSC[C@@H](C(=O)O)NC1=O [P1, CRWYDENAC] (H-CRWYDENAC-OH; disulfide 1-9; N-terminus and C-terminus assumed)	8.59	6.52	5.81	–	1.00	6.97 ± 1.44	–
C[C@@H]1NC(=O)[C@H](CC(N)=O)NC(=O)[C@H](CCC(=O)O)NC(=O)[C@H](C)NC(=O)[C@H](Cc2ccc(O)cc2)NC(=O)[C@H](Cc2c[nH]c3ccccc23)NC(=O)[C@H](CCCNC(=N)N)NC(=O)[C@@H](N)CSSC[C@@H](C(=O)O)NC1=O [P5, CRWYAENAC] (H-CRWYAENAC-OH; disulfide 1-9; N-terminus and C-terminus assumed)	0.36	0.22	0.65	0.41	17.01	–	–
C[C@@H]1NC(=O)[C@H](CC(N)=O)NC(=O)[C@H](CCC(=O)O)NC(=O)[C@H](CC(=O)O)NC(=O)[C@H](Cc2ccc(O)cc2)NC(=O)[C@H](Cc2c[nH]c3ccccc23)NC(=O)[C@H](C)NC(=O)[C@@H](N)CSSC[C@@H](C(=O)O)NC1=O [P2, CAWYDENAC] (H-CAWYDENAC-OH; disulfide 1-9; N-terminus and C-terminus assumed)	4.03	12.1	3.58	6.58	1.06	–	–
C[C@H](NC(=O)[C@H](Cc1ccc(O)cc1)NC(=O)[C@H](Cc1c[nH]c2ccccc12)NC(=O)[C@@H](N)CCCNC(=N)N)C(=O)N[C@@H](CCC(=O)O)C(=O)N[C@@H](CC(N)=O)C(=O)O [P16, RWYAEN] (H-RWYAEN-OH; N-terminus and C-terminus assumed)	7.31	6.08	9.74	7.71	0.90	–	–
C[C@H](NC(=O)[C@H](CC(=O)O)NC(=O)[C@H](Cc1ccc(O)cc1)NC(=O)[C@H](Cc1c[nH]c2ccccc12)NC(=O)[C@@H](N)CCCNC(=N)N)C(=O)O [P14, RWYDA] (H-RWYDA-OH; N-terminus and C-terminus assumed)	6.28	4.69	4.22	5.06	1.38	–	–
C[C@H](NC(=O)[C@H](CCC(=O)O)NC(=O)[C@H](CC(=O)O)NC(=O)[C@H](Cc1ccc(O)cc1)NC(=O)[C@H](Cc1c[nH]c2ccccc12)NC(=O)[C@@H](N)CCCNC(=N)N)C(=O)O [P12, RWYDEA] (H-RWYDEA-OH; N-terminus and C-terminus assumed)	5.26	2.49	1.74	3.16	2.20	–	–
C[C@H](NC(=O)[C@H](CC(=O)O)NC(=O)[C@H](Cc1ccc(O)cc1)NC(=O)[C@H](Cc1c[nH]c2ccccc12)NC(=O)[C@@H](N)CCCNC(=N)N)C(=O)N[C@@H](CC(N)=O)C(=O)O [P11, RWYDAN] (H-RWYDAN-OH; N-terminus and C-terminus assumed)	34.6	23.2	35.7	31.2	0.22	–	–
C[C@H](NC(=O)[C@H](CC(N)=O)NC(=O)[C@H](C)NC(=O)[C@H](CC(=O)O)NC(=O)[C@H](Cc1ccc(O)cc1)NC(=O)[C@H](Cc1c[nH]c2ccccc12)NC(=O)[C@@H](N)CCCNC(=N)N)C(=O)O [P10, RWYDANA] (H-RWYDANA-OH; N-terminus and C-terminus assumed)	62.1	17.5	12.4	30.6	0.23	–	–
N=C(N)NCCC[C@H](N)C(=O)N[C@@H](Cc1c[nH]c2ccccc12)C(=O)N[C@@H](Cc1ccc(O)cc1)C(=O)N[C@@H](CC(=O)O)C(=O)NCCOCCOCCOCCOCCC(=O)N[C@@H](CCCCNC(=O)CN1CCN(CC(=O)O)CCN(CC(=O)O)CC1)C(=O)O [RWYD-PEG4-K-NOTA] (H-RWYD[PEG4]K(NOTA)-OH)	–	–	–	–	–	–	0.642 ± 0.261
